This test has as its system c-fos mRNA. Description: Expression of c-fos mRNA in HepG2 cells, bead-based confocal detection with detection/capture oligonucleotides. As to conditions: 100 nM PMA, 24 μl of lysate, using the calibration of example 1a. The class given is cell-based. On the procedure:
Fully automated dual-channel confocal imaging was performed with two independent cooled CCD detectors. Excitation wavelengths were 532 nm and 633 nm, a dichroic beam splitter with 630 nm was used and emission filters were 565/50 nm and 690/40 nm. Laser power was […] for both wavelengths, measured at the entrance of the objective. Exposure times were usually in the range of 500-1000 ms.
The analysis of the images was performed with image analysis software as follows. Segmentation of the beads from the background was performed on a pixel-basis in the reference image. […] A mask of these rings corresponding to detected beads was generated from the reference image. This mask was applied to the signal image (see FIG. 6, right picture). Areas within the outer boundary of the ring were evaluated for fluorescence intensity stemming from the DO-analyte-CO complex bound to the bead. […] Such local background intensity was then subtracted from the signal intensity.
The final result was the mean fluorescence intensity/bead pixel of the signal image. In general, the intensity was averaged over all correctly detected beads of the image. As already mentioned, images of sedimented beads were taken. The sedimented beads were usually comprised in wells of micro- or nanotiter plates and in some cases, several images were taken of each well. […]

One compound from US7867707B2, “Method for detecting analytes in a sample” (Evotec AG, priority 2004, dated 2011) can be followed below.

On to `CCCCCCCCCCCCCC(=O)O[C@@H]1[C@@H](C)[C@@]2(O)[C@@H](C=C(CO)C[C@]3(O)C(=O)C(C)=C[C@@H]23)[C@@H]2C(C)(C)[C@]12OC(C)=O` [PMA, Phorbol 12-myristate 13-acetate], for which the “c-fos mRNA copy number” value was 3.03*10^6 copies mRNA/well.
